# From patent US12138250B2, “Formulations of 6-(2-hydroxy-2-methylpropoxy)-4-(6-(6-((6-methoxypyridin-3-yl)methyl)-3,6-diazabicyclo[3.1.1]heptan-3-yl)pyridin-3-yl)pyrazolo[1,5-a]pyridine-3-carbonitrile” (Loxo Oncology, Inc., priority 2017, dated 2024)
# Where two headings read alike, the source gives them in different places.
# How the values were obtained:
# Type in all cases: physicochemical
# [1] = Dynamic Vapor Sorption (DVS)
# Description: Approximately 10 mg of sample was placed into a mesh vapor sorption balance pan and loaded into a DVS-1 dynamic vapor sorption balance by Surface Measurement Systems. The sample was subjected to a ramping profile from 40-90% relative humidity (RH) at 10% increments, maintaining the sample at each step until a stable weight had been achieved (99.5% step completion). After completion of the sorption cycle, the sample was dried using the same procedure to 0% RH and then a second sorption cycle back to 40% RH. The weight change during the sorption/desorption cycles were plotted, allowing for the hygroscopic nature of the sample to be determined. XRPD analysis was then carried out on any solid retained.
# [2] = Solvent solubility screen in 32 solvent systems; conditions: for solubility: 40 °C, thermodynamic from solid, read-out: Approximate solubility
# Description: A solvent solubility screen was conducted in 32 solvent systems as follows. […] Between each addition, the mixture was checked for dissolution. If no dissolution was apparent, the mixture was heated to around 40° C. and checked again. This procedure was continued until dissolution was observed or until 100 volumes of solvent had been added. Undissolved material from the solubility screen was isolated and analyzed by XRPD.
# [3] = Overnight storage at 40° C. and 75% RH with XRPD reanalysis (salt screen, temperature cycling polymorph screen); conditions: for Post-temperature cycling (XRPD form): analyzed wet; for Post-stability tests (XRPD form): stored at 40° C. and 75% RH overnight
# Description: Each mixture was filtered and isolated solids were analyzed (wet) by XRPD to determine crystallinity and form. Samples in which solid was not observed were stored uncapped to allow solvent evaporation. […] The samples were then reanalyzed by XRPD to determine any changes in form or crystallinity. The observations and results, including the different diffractogram patterns observed during the screen, are shown in Tables 8-32, below, and FIGS. 6A-6B through 29A-29B. After temperature cycling, each mixture was filtered and isolated solids were analyzed (wet) by XRPD to determine crystallinity and form. The samples were then stored at 40° C. and 75% RH overnight and reanalyzed by XRPD to determine any changes in form or crystallinity. Results are shown in Table 39, below, and FIGS. 40A-40D.
smiles,measurement,setting,value
"COc1ccc(CN2C3CC2CN(c2ccc(-c4cc(OCC(C)(C)O)cn5ncc(C#N)c45)cn2)C3)cn1 [compound of Formula (I), 6-(2-hydroxy-2-methylpropoxy)-4-(6-(6-((6-methoxypyridin-3-yl)methyl)-3,6-diazabicyclo[3.1.1]heptan-3-yl)pyridin-3-yl)pyrazolo[1,5-a]pyridine-3-carbonitrile]",change in form post-DVS,[1]; XRPD after DVS,No change in Form
same,weight increase by DVS,"[1]; at 90% RH, material prepared as in Example 1, identified as Form 1",around 3.6%
same,hygroscopicity by DVS,"[1]; material prepared as in Example 1, identified as Form 1",moderately hygroscopic
same,solubility,"[2]; aqueous with cosolvent or surfactant or cyclodextrin, solvent Acetone:Water (50%)",< 5000 µg/mL
same,solubility,"[2]; organic solvent or mixture, solvent 1,4-Dioxane, (P) = partial solubility at 100 volumes",< 5000 µg/mL
same,solubility,"[2]; organic solvent or mixture, solvent 1-Butanol",< 5000 µg/mL
same,solubility,"[2]; organic solvent or mixture, solvent 1-Propanol",< 5000 µg/mL
same,solubility,"[2]; organic solvent or mixture, solvent 2-Ethoxyethanol, (P) = partial solubility at 100 volumes",< 5000 µg/mL
same,solubility,"[2]; organic solvent or mixture, solvent 2-Methyl THF, (P) = partial solubility at 100 volumes",< 5000 µg/mL
same,solubility,"[2]; organic solvent or mixture, solvent Acetone",< 5000 µg/mL
same,solubility,"[2]; organic solvent or mixture, solvent Anisole, (P) = partial solubility at 100 volumes",< 5000 µg/mL
same,solubility,"[2]; organic solvent or mixture, solvent CHCl3, (P) = partial solubility at 100 volumes",< 5000 µg/mL
same,solubility,"[2]; organic solvent or mixture, solvent Cyclohexane",< 5000 µg/mL
same,solubility,"[2]; organic solvent or mixture, solvent Cyclohexanone, (P) = partial solubility at 100 volumes",< 5000 µg/mL
same,solubility,"[2]; organic solvent or mixture, solvent DCM, (P) = partial solubility at 100 volumes",< 5000 µg/mL
same,solubility,"[2]; organic solvent or mixture, solvent EtOAc",< 5000 µg/mL
same,solubility,"[2]; organic solvent or mixture, solvent Ethanol",< 5000 µg/mL
same,solubility,"[2]; organic solvent or mixture, solvent IPA",< 5000 µg/mL
same,solubility,"[2]; organic solvent or mixture, solvent MEK",< 5000 µg/mL
same,solubility,"[2]; organic solvent or mixture, solvent MIBK",< 5000 µg/mL
same,solubility,"[2]; organic solvent or mixture, solvent MeOAc",< 5000 µg/mL
same,solubility,"[2]; organic solvent or mixture, solvent Nitromethane, (P) = partial solubility at 100 volumes",< 5000 µg/mL
same,solubility,"[2]; organic solvent or mixture, solvent THF, (P) = partial solubility at 100 volumes",< 5000 µg/mL
same,solubility,[2]; solvent Water,< 5000 µg/mL
same,solubility in solvent solubility screen,"[2]; DMSO, NMP, and THF/water (1%)",moderate solubility
same,solubility in solvent solubility screen,[2]; majority of solvent systems investigated,low solubility
same,Post-temperature cycling (XRPD form),"[3]; slurry in 1,4-Dioxane, 40° C./RT cycles 72 hours",Weak diffraction
same,Post-temperature cycling (XRPD form),"[3]; slurry in 1-Butanol, 40° C./RT cycles 72 hours",Weak diffraction
same,Post-temperature cycling (XRPD form),"[3]; slurry in 1-Propanol, 40° C./RT cycles 72 hours",Form 8
same,Post-temperature cycling (XRPD form),"[3]; slurry in 2-Ethoxyethanol, 40° C./RT cycles 72 hours",Weak diffraction
same,Post-temperature cycling (XRPD form),"[3]; slurry in 2-Methyl THF, 40° C./RT cycles 72 hours",Weak diffraction
same,Post-temperature cycling (XRPD form),"[3]; slurry in Acetone, 40° C./RT cycles 72 hours",Weak diffraction
same,Post-temperature cycling (XRPD form),"[3]; slurry in Acetone:Water (50%), 40° C./RT cycles 72 hours",Form 1
same,Post-temperature cycling (XRPD form),"[3]; slurry in Anisole, 40° C./RT cycles 72 hours",Form 1
same,Post-temperature cycling (XRPD form),"[3]; slurry in CHCl3, 40° C./RT cycles 72 hours",Amorphous
same,Post-temperature cycling (XRPD form),"[3]; slurry in Cyclohexane, 40° C./RT cycles 72 hours",Form 1
same,Post-temperature cycling (XRPD form),"[3]; slurry in Cyclohexanone, 40° C./RT cycles 72 hours",Weak diffraction
same,Post-temperature cycling (XRPD form),"[3]; slurry in DCM, 40° C./RT cycles 72 hours",Amorphous
same,Post-temperature cycling (XRPD form),"[3]; slurry in DMSO, 40° C./RT cycles 72 hours",Form 1
same,Post-temperature cycling (XRPD form),"[3]; slurry in EtOAc, 40° C./RT cycles 72 hours",Form 1
same,Post-temperature cycling (XRPD form),"[3]; slurry in Ethanol, 40° C./RT cycles 72 hours",Weak diffraction
same,Post-temperature cycling (XRPD form),"[3]; slurry in IPA, 40° C./RT cycles 72 hours",Form 8
same,Post-temperature cycling (XRPD form),"[3]; slurry in MEK, 40° C./RT cycles 72 hours",Weak diffraction
same,Post-temperature cycling (XRPD form),"[3]; slurry in MIBK, 40° C./RT cycles 72 hours",Form 1
same,Post-temperature cycling (XRPD form),"[3]; slurry in MeCN:Water (20%), 40° C./RT cycles 72 hours",Weak diffraction
same,Post-temperature cycling (XRPD form),"[3]; slurry in MeOAc, 40° C./RT cycles 72 hours",Weak diffraction
same,Post-temperature cycling (XRPD form),"[3]; slurry in Nitromethane, 40° C./RT cycles 72 hours",Weak diffraction
same,Post-temperature cycling (XRPD form),"[3]; slurry in THF, 40° C./RT cycles 72 hours",Weak diffraction
same,Post-temperature cycling (XRPD form),"[3]; slurry in THF:Water (1%), 40° C./RT cycles 72 hours",Weak diffraction
same,Post-temperature cycling (XRPD form),"[3]; slurry in Water, 40° C./RT cycles 72 hours",Form 1
same,Post-stability tests (XRPD form),"[3]; solid from 1,4-Dioxane",Form 1
same,Post-stability tests (XRPD form),[3]; solid from 1-Butanol,Form 1
same,Post-stability tests (XRPD form),[3]; solid from 1-Propanol,Form 1
same,Post-stability tests (XRPD form),[3]; solid from 2-Ethoxyethanol,Form 1
same,Post-stability tests (XRPD form),[3]; solid from 2-Methyl THF,Form 1
same,Post-stability tests (XRPD form),[3]; solid from Acetone:Water (50%),Form 1
same,Post-stability tests (XRPD form),[3]; solid from Acetone,Form 1
same,Post-stability tests (XRPD form),[3]; solid from Anisole,Form 1
same,Post-stability tests (XRPD form),[3]; solid from CHCl3,Form 1
same,Post-stability tests (XRPD form),[3]; solid from Cyclohexane,Form 1
same,Post-stability tests (XRPD form),[3]; solid from Cyclohexanone,Form 1
same,Post-stability tests (XRPD form),[3]; solid from DCM,Form 1
same,Post-stability tests (XRPD form),[3]; solid from DMSO,Form 1
same,Post-stability tests (XRPD form),[3]; solid from EtOAc,Form 1
same,Post-stability tests (XRPD form),[3]; solid from Ethanol,Form 1
same,Post-stability tests (XRPD form),[3]; solid from IPA,Form 1
same,Post-stability tests (XRPD form),[3]; solid from MEK,Form 1
same,Post-stability tests (XRPD form),[3]; solid from MIBK,Form 1
same,Post-stability tests (XRPD form),[3]; solid from MeCN:Water (20%),Form 1
same,Post-stability tests (XRPD form),[3]; solid from MeOAc,Form 1
same,Post-stability tests (XRPD form),[3]; solid from Nitromethane,Form 1
same,Post-stability tests (XRPD form),[3]; solid from THF,Form 1
same,Post-stability tests (XRPD form),[3]; solid from Water,Form 1
